Patent publication US20220395472A1 (Dermavant Sciences GmbH, priority 2021, published 2022)

Test system: adults with plaque psoriasis
Test: Long-term open-label extension study (PSOARING 3): Physician Global Assessment (PGA), treatment episodes, treatment success, remittive effect
Format: in vivo, human
Procedure: This extension study consisted of up to 40 weeks of treatment and a 4 week, safety follow up period.
At the completion of the Week 12 visit of the DB, pivotal Phase 3 study, eligibility of the subjects opting to enroll in this extension study was confirmed. Study visits during the treatment period for all subjects occurred every 4 weeks (±3 days). A phone call was performed at Week 2 (Day 15). Unscheduled visits may have occurred, as needed. Subjects who withdrew from this study before Week 40 returned to the study center for an Early Termination visit. The total duration of this extension study participation was 44 weeks. Subjects in this study were treated as follows based on their PGA score from the Week 12 visit in the DB, pivotal Phase 3 study (Study DMVT 505 3001 or Study DMVT 505 3002).
The PGA was used to assess the primary efficacy endpoint in this study. The PGA is a clinical tool for assessing the current state/severity of a subject's psoriasis at a given time point. It is a static, 5 point, morphological assessment of overall disease severity, as determined by the Investigator, using the clinical characteristics of erythema, scaling, and plaque thickness/elevation as guidelines; higher PGA scores represent more severe disease (0=clear, 1=almost clear, 2=mild, 3=moderate, and 4=severe). The BSA affected was not considered in scoring of the PGA. Variations of the PGA are frequently used in clinical studies because it is a simple assessment, similar to those used in clinical practice. The PGA was performed first, prior to the % BSA, PASI, and LTS assessments.
Time to event parameters, such as the time from treatment success to subsequent worsening (PGA≥2) or duration of treatment episode, were summarized by the Kaplan Meier product limit method using OC.

[1] = Baseline PGA = 3, Tapinarof (Pivotal) group
[2] = Baseline PGA = 3, Vehicle (Pivotal) group
[3] = Baseline PGA = 4, Tapinarof (Pivotal) group
[4] = Baseline PGA = 4, Vehicle (Pivotal) group

## CC(C)c1c(O)cc(/C=C/c2ccccc2)cc1O [Tapinarof, 3,5-Dihydroxy-4-isopropyl-trans-stilbene]
[1]
  Total Duration of Treatment Success, Mean (SD): 67.3 (54.20) days
  Total Duration of Treatment Success, Median: 56.5 days
[2]
  Average Duration of Episodes, Mean (SD): 174.0 (94.06) days
  Average Duration of Episodes, Median: 195.0 days
  Average Duration of Treatment Success, Mean (SD): 67.1 (57.99) days
  Average Duration of Treatment Success, Median: 51.0 days
  Duration of 1st Episode, Mean (SD): 177.1 (92.70) days
  Duration of 1st Episode, Median: 195.5 days
  Duration of 1st Success, Mean (SD): 70.3 (58.38) days
  Duration of 1st Success, Median: 56.0 days
  Duration of 2nd Episode, Mean (SD): 56.4 (37.29) days
  Duration of 2nd Episode, Median: 55.5 days
  Duration of 2nd Success, Mean (SD): 29.2 (18.23) days
  Duration of 2nd Success, Median: 28.0 days
  Duration of 3rd Episode, Mean (SD): 55.2 (27.44) days
  Duration of 3rd Episode, Median: 57.0 days
  Duration of 3rd Success, Mean (SD): 28.0 (NE) days
  Duration of 3rd Success, Median: 28.0 days
  Duration of 4th Episode, Mean (SD): 1.0 (NE) days
  Duration of 4th Episode, Median: 1.0 days
  Duration of Last Episode, Mean (SD): 171.4 (97.39) days
  Duration of Last Episode, Median: 195.0 days
  Duration of Last Success, Mean (SD): 63.8 (59.74) days
  Duration of Last Success, Median: 49.0 days
  Total Duration of Treatment Episodes, Mean (SD): 186.1 (87.86) days
  Total Duration of Treatment Episodes, Median: 197.5 days
  Total Duration of Treatment Success, Mean (SD): 77.4 (58.26) days
  Total Duration of Treatment Success, Median: 81.0 days
Baseline PGA = 4, Overall
  Average Duration of Episodes, Mean (SD): 187.5 (102.01) days
  Average Duration of Episodes, Median: 225.0 days
  Average Duration of Treatment Success, Mean (SD): 104.5 (56.36) days
  Average Duration of Treatment Success, Median: 93.0 days
  Duration of 1st Episode, Mean (SD): 187.4 (102.04) days
  Duration of 1st Episode, Median: 225.0 days
  Duration of 1st Success, Mean (SD): 104.5 (56.36) days
  Duration of 1st Success, Median: 93.0 days
  Duration of 2nd Episode, Mean (SD): 85.0 (NE) days
  Duration of 2nd Episode, Median: 85.0 days
  Duration of Last Episode, Mean (SD): 187.5 (101.99) days
  Duration of Last Episode, Median: 225.0 days
  Duration of Last Success, Mean (SD): 104.5 (56.36) days
  Duration of Last Success, Median: 93.0 days
  Total Duration of Treatment Episodes, Mean (SD): 191.1 (99.63) days
  Total Duration of Treatment Episodes, Median: 225.0 days
  Total Duration of Treatment Success, Mean (SD): 104.5 (56.36) days
  Total Duration of Treatment Success, Median: 93.0 days
[3]
  Average Duration of Episodes, Mean (SD): 132.9 (100.39) days
  Average Duration of Episodes, Median: 113.0 days
  Average Duration of Treatment Success, Mean (SD): 119.5 (79.90) days
  Average Duration of Treatment Success, Median: 119.5 days
  Duration of 1st Episode, Mean (SD): 132.9 (100.39) days
  Duration of 1st Episode, Median: 113.0 days
  Duration of 1st Success, Mean (SD): 119.5 (79.90) days
  Duration of 1st Success, Median: 119.5 days
  Duration of Last Episode, Mean (SD): 132.9 (100.39) days
  Duration of Last Episode, Median: 113.0 days
  Duration of Last Success, Mean (SD): 119.5 (79.90) days
  Duration of Last Success, Median: 119.5 days
  Total Duration of Treatment Episodes, Mean (SD): 132.9(100.39) days
  Total Duration of Treatment Episodes, Median: 113.0 days
  Total Duration of Treatment Success, Mean (SD): 119.5 (79.90) days
  Total Duration of Treatment Success, Median: 119.5 days
[4]
  Average Duration of Episodes, Mean (SD): 211.3 (96.08) days
  Average Duration of Episodes, Median: 267.0 days
  Average Duration of Treatment Success, Mean (SD): 89.5 (47.38) days
  Average Duration of Treatment Success, Median: 89.5 days
  Duration of 1st Episode, Mean (SD): 211.3 (96.13) days
  Duration of 1st Episode, Median: 267.0 days
  Duration of 1st Success, Mean (SD): 89.5 (47.38) days
  Duration of 1st Success, Median: 89.5 days
  Duration of 2nd Episode, Mean (SD): 85.0 (NE) days
  Duration of 2nd Episode, Median: 85.0 days
  Duration of Last Episode, Mean (SD): 211.4 (96.04) days
  Duration of Last Episode, Median: 267.0 days
  Duration of Last Success, Mean (SD): 89.5 (47.38) days
  Duration of Last Success, Median: 89.5 days
  Total Duration of Treatment Episodes, Mean (SD): 216.6 (90.82) days
  Total Duration of Treatment Episodes, Median: 267.0 days
  Total Duration of Treatment Success, Mean (SD): 89.5 (47.38) days
  Total Duration of Treatment Success, Median: 89.5 days
Baseline, Overall
  PGA 0 - Clear: 78 (10.3) n (%)
  PGA 1 - Almost Clear: 161 (21.2) n (%)
  PGA 2 - Mild: 248 (32.7) n (%)
